Experimental data taken from the NIST ThermoML archive (doi:10.1016/j.fluid.2015.02.014).
Numbers after ± are expanded uncertainties.

Settings: Liquid, Closed cell (Static) method

| SMILES | vapor or sublimation pressure (283.15 K) | vapor or sublimation pressure (293.15 K) | vapor or sublimation pressure (303.15 K) | vapor or sublimation pressure (313.15 K) | vapor or sublimation pressure (323.15 K) |
| --- | --- | --- | --- | --- | --- |
| CCF [fluoroethane] | 601.2 ± 1.3 kPa | 805.6 ± 1.5 kPa | 1058.8 ± 1.8 kPa | 1365.8 ± 2.2 kPa | 1735.2 ± 2.7 kPa |
| C=C(F)C(F)(F)F [2,3,3,3-tetrafluoro-1-propene] | 437.9 ± 1.2 kPa | 591.5 ± 1.3 kPa | 782.9 ± 1.5 kPa | 1018.2 ± 1.8 kPa | 1302.4 ± 2.1 kPa |
